Read-outs that look alike come from different tables or passages of the source.
Test: Plasma concentrations (PK), Example 1
Assay type: in vivo, human
Procedure: For QD dosing, peak concentration was defined as any PK sample taken between 0.25 to <6 hours after the last morning dose and trough concentration was at least 20 hours after the last morning dose. For BID dosing, peak concentration was defined as any PK sample taken between 0.25 to <4 hours after the last dose and trough concentration was at least 8 hours after the last dose.

For `CC(=O)NCCCC[C@@H]1NC(=O)[C@H](Cc2c[nH]c3c(C)cccc23)NC(=O)[C@H]([C@@H](C)O)NC(=O)[C@H](CC(N)=O)NC(=O)[C@@H](NC(C)=O)C(C)(C)SSC(C)(C)[C@@H](C(=O)N[C@@H](Cc2ccc(OCCN)cc2)C(=O)N[C@@H](Cc2ccc3ccccc3c2)C(=O)NC2(C(=O)N[C@@H](CCC(=O)O)C(=O)N[C@@H](CC(N)=O)C(=O)N[C@@H](Cc3cccnc3)C(=O)N(C)CC(N)=O)CCOCC2)NC1=O` [IL-23 receptor antagonist peptide, Ac-[Pen]*-N-T-[W(7-Me)]-[Lys(Ac)]-[Pen]*-Phe[4-(2-aminoethoxy)]-[2-Nal]-[THP]-E-N-[3-Pal]-Sarc-NH2 (*[Pen]-[Pen]* formdisulfidebond)], the “Number of subjects with plasma concentration below LLOQ” value (from here on “Number of subjects”) (25 mg BID, Week 2, Intermediate) was 0, the “Number of subjects” value (25 mg BID, Week 2, Peak) was 0 and the “Number of subjects” value (25 mg BID, Week 2, Trough) was 1 (100.0%). For the same compound, the “Number of subjects” value (25 mg BID, Week 4, Intermediate) was 0, the “Number of subjects” value (25 mg BID, Week 4, Peak) was 0 and the “Number of subjects” value (25 mg BID, Week 4, Trough) was 1 (100.0%). For the same compound, the “Number of subjects” value (25 mg BID, Week 8, Intermediate) was 0, the “Number of subjects” value (25 mg BID, Week 8, Peak) was 1 (50.0%) and the “Number of subjects” value (25 mg BID, Week 8, Trough) was 2 (100.0%). The “Number of subjects” value (25 mg BID, Week 12, Intermediate) was 0, the “Number of subjects” value (25 mg BID, Week 12, Peak) was 0 and the “Number of subjects” value (25 mg BID, Week 12, Trough) was 2 (100.0%). For the same compound, the “Number of subjects” value (25 mg BID, Week 16, Intermediate) was 0, the “Number of subjects” value (25 mg BID, Week 16, Peak) was 0 and the “Plasma concentration, Median” value (25 mg BID, Week 16, Peak) was 0.796 ng/mL. The “Number of subjects” value (25 mg BID, Week 16, Trough) was 1 (100.0%), the “Plasma concentration, Median” value (25 mg BID, Week 16, Trough) was 0.134 ng/mL and the “Number of subjects” value (25 mg QD, Week 1, Intermediate) was 0. The “Number of subjects” value (25 mg QD, Week 1, Peak) was 0, the “Number of subjects” value (25 mg QD, Week 1, Trough, LLOQ 0.02 ng/mL) was 3 (100.0%) and the “Number of subjects” value (25 mg QD, Week 2, Intermediate) was 0. The “Number of subjects” value (25 mg QD, Week 2, Peak) was 3 (100.0%), the “Number of subjects” value (25 mg QD, Week 2, Trough) was 0 and the “Number of subjects” value (25 mg QD, Week 4, Intermediate) was 0. The “Number of subjects” value (25 mg QD, Week 4, Peak) was 0, the “Number of subjects” value (25 mg QD, Week 4, Trough) was 3 (100.0%) and the “Number of subjects” value (25 mg QD, Week 8, Intermediate) was 0. The “Number of subjects” value (25 mg QD, Week 8, Peak) was 0), the “Number of subjects” value (25 mg QD, Week 8, Trough) was 2 (100.0%) and the “Number of subjects” value (25 mg QD, Week 12, Intermediate) was 0. The “Number of subjects” value (25 mg QD, Week 12, Peak) was 0, the “Number of subjects” value (25 mg QD, Week 12, Trough) was 6 and the “Number of subjects” value (25 mg QD, Week 16, Intermediate) was 0. The “Number of subjects” value (25 mg QD, Week 16, Peak) was 2, the “Plasma concentration, Median” value (25 mg QD, Week 16, Peak) was 0.295 ng/mL and the “Number of subjects” value (25 mg QD, Week 16, Trough) was 2. The “Plasma concentration, Median” value (25 mg QD, Week 16, Trough) was 0.057 ng/mL, the “Number of subjects” value (50 mg QD, Week 2, Intermediate) was 0 and the “Number of subjects” value (50 mg QD, Week 2, Peak) was 1 (100.0%). The “Number of subjects” value (50 mg QD, Week 2, Trough) was 0, the “Number of subjects” value (50 mg QD, Week 12, Intermediate) was 0 and the “Number of subjects” value (50 mg QD, Week 12, Peak) was 0. For the same compound, the “Number of subjects” value (50 mg QD, Week 12, Trough) was 2 (100.0%), the “Number of subjects” value (50 mg QD, Week 16, Intermediate) was 0 and the “Number of subjects” value (50 mg QD, Week 16, Peak) was 0. For the same compound, the “Plasma concentration, Median” value (50 mg QD, Week 16, Peak) was 0.917 ng/mL, the “Number of subjects” value (50 mg QD, Week 16, Trough) was 3 (100.0%) and the “Plasma concentration, Median” value (50 mg QD, Week 16, Trough) was 0.089 ng/mL. The “Number of subjects” value (100 mg BID, Week 16, Intermediate) was 0, the “Number of subjects” value (100 mg BID, Week 16, Peak) was 0 and the “Plasma concentration, Median” value (100 mg BID, Week 16, Peak) was 1.970 ng/mL. The “Number of subjects” value (100 mg BID, Week 16, Trough) was 1 (100.0%), the “Plasma concentration, Median” value (100 mg BID, Week 16, Trough) was 0.451 ng/mL and the “Number of subjects” value (100 mg QD, Week 12, Intermediate) was 1 (33.3%). For the same compound, the “Number of subjects” value (100 mg QD, Week 12, Peak) was 1 (33.3%), the “Number of subjects” value (100 mg QD, Week 12, Trough) was 1 (33.3%) and the “Number of subjects” value (100 mg QD, Week 16, Intermediate) was 1 (33.3%). The “Number of subjects” value (100 mg QD, Week 16, Peak) was 0, the “Plasma concentration, Median” value (100 mg QD, Week 16, Peak) was 1.165 ng/mL and the “Number of subjects” value (100 mg QD, Week 16, Trough) was 2 (66.7%). The “Plasma concentration, Median” value (100 mg QD, Week 16, Trough) was 0.132 ng/mL, the “Effect of body weight on systemic exposure” value (baseline body weight subgroups, through Week 16) was “not consistently evident that body weight has a major impact on systemic exposure” and the “Drug accumulation (median trough concentrations)” value (between Week 1 and 16) was “no apparent drug accumulation”. It also gave a level at 672 h (human, plasma, oral, 25 mg, 25 mg BID, Week 4, Peak, read-out: Plasma concentration, Geometric Mean) of 0.539 ng/mL, a level at 672 h (human, plasma, oral, 25 mg, 25 mg BID, Week 4, Peak, read-out: Plasma concentration, Mean) of 0.655 ng/mL and a level at 672 h (human, plasma, oral, 25 mg, 25 mg BID, Week 4, Peak, read-out: Plasma concentration, Median) of 0.52 ng/mL. It also gave a level at 1344 h (human, plasma, oral, 25 mg, 25 mg BID, Week 8, Intermediate, read-out: Plasma concentration, Geometric Mean) of 0.092 ng/mL, a level at 1344 h (human, plasma, oral, 25 mg, 25 mg BID, Week 8, Intermediate, read-out: Plasma concentration, Mean) of 0.092 ng/mL and a level at 1344 h (human, plasma, oral, 25 mg, 25 mg BID, Week 8, Intermediate, read-out: Plasma concentration, Median) of 0.092 ng/mL. It also gave a level at 1344 h (human, plasma, oral, 25 mg, 25 mg BID, Week 8, Peak, read-out: Plasma concentration, Geometric Mean) of 0.483 ng/mL, a level at 1344 h (human, plasma, oral, 25 mg, 25 mg BID, Week 8, Peak, read-out: Plasma concentration, Mean) of 0.672 ng/mL and a level at 1344 h (human, plasma, oral, 25 mg, 25 mg BID, Week 8, Peak, read-out: Plasma concentration, Median) of 0.545 ng/mL. It also gave a level at 1344 h (human, plasma, oral, 25 mg, 25 mg BID, Week 8, Trough, read-out: Plasma concentration, Geometric Mean) of 0.151 ng/mL, a level at 1344 h (human, plasma, oral, 25 mg, 25 mg BID, Week 8, Trough, read-out: Plasma concentration, Mean) of 0.184 ng/mL and a level at 1344 h (human, plasma, oral, 25 mg, 25 mg BID, Week 8, Trough, read-out: Plasma concentration, Median) of 0.143 ng/mL. For the same compound, the level at 2016 h (human, plasma, oral, 25 mg, 25 mg BID, Week 12, Trough, read-out: Plasma concentration, Mean) was 0.202 ng/mL, the level at 672 h (human, plasma, oral, 25 mg, 25 mg QD, Week 4, Peak, read-out: Plasma concentration, Geometric Mean) was 0.469 ng/mL and the level at 672 h (human, plasma, oral, 25 mg, 25 mg QD, Week 4, Peak, read-out: Plasma concentration, Mean) was 0.591 ng/mL. It also gave a level at 672 h (human, plasma, oral, 25 mg, 25 mg QD, Week 4, Peak, read-out: Plasma concentration, Median) of 0.425 ng/mL, a level at 1344 h (human, plasma, oral, 25 mg, 25 mg QD, Week 8, Intermediate, read-out: Plasma concentration, Geometric Mean) of 0.168 ng/mL and a level at 1344 h (human, plasma, oral, 25 mg, 25 mg QD, Week 8, Intermediate, read-out: Plasma concentration, Mean) of 0.211 ng/mL. It also gave a level at 1344 h (human, plasma, oral, 25 mg, 25 mg QD, Week 8, Intermediate, read-out: Plasma concentration, Median) of 0.177 ng/mL, a level at 1344 h (human, plasma, oral, 25 mg, 25 mg QD, Week 8, Peak, read-out: Plasma concentration, Geometric Mean) of 0.284 ng/mL and a level at 1344 h (human, plasma, oral, 25 mg, 25 mg QD, Week 8, Peak, read-out: Plasma concentration, Mean) of 0.443 ng/mL. For the same compound, the level at 1344 h (human, plasma, oral, 25 mg, 25 mg QD, Week 8, Peak, read-out: Plasma concentration, Median) was 0.325 ng/mL, the level at 1344 h (human, plasma, oral, 25 mg, 25 mg QD, Week 8, Trough, read-out: Plasma concentration, Geometric Mean) was 0.061 ng/mL and the level at 1344 h (human, plasma, oral, 25 mg, 25 mg QD, Week 8, Trough, read-out: Plasma concentration, Mean) was 0.068 ng/mL.
